# Results from PMC5065099 (Chemical biology & drug design, 2016).
# Like-named read-outs stand apart in the source and are kept apart here.
# Columns and labels:
# [1] = test system: AQP1; settings: Xenopus oocytes; cited from earlier work
# [2] = molecular target: T1, AQP1 (Homo sapiens, UniProt P29972); assay type: biochemical
# T1 sequence (P29972 1-269): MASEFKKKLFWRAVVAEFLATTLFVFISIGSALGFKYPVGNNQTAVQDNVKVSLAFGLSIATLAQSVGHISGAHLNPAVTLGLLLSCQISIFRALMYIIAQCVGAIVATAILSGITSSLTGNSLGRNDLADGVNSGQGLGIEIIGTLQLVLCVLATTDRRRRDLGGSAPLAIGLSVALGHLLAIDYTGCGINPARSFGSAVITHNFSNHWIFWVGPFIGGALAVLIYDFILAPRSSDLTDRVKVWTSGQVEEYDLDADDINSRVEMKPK
Compound,inhibition of AQP1 water transport [1],"reduction in water transport (inhibitory action) ([2]; hypotonic shock, compounds at final 75 μM, HgCl2 50 μM)",reduction in water transport (inhibitory action) [2]
CC(=O)Nc1nnc(S(N)(=O)=O)s1 [acetazolamide],no inhibition,,
"[Cl][Hg][Cl] [HgCl2, mercuric chloride]",,highly sensitive,
"CC[N+](CC)(CC)CC [TEA, tetraethylammonium]",no inhibition,,ineffective
